# In patent US4689345A, “Oxygenated alkyl substituted bicyclo alkanes” (CBD Corporation, priority 1986, dated 1987):
# Where “and” joins values, the source holds several entries; their conditions need not be identical. Equal entries are not always repeated. Where two headings read alike, the source gives them in different places.
# Tests used:
# [1] = tested on: collagen:elastin formation; assay: Collagen synthesized and elastic increase compared to control, by patient; type: cell-based, human; settings: anti-androgen to DHT 1,000:1
# progesterone receptor [2] = assay: Effect on progesterone receptors in melanoma; type: binding; settings: 1:1000 DHT to compound
# [3] = target: T1, androgen receptor sites (keloid cytosol) (Homo sapiens, UniProt P10275); assay: Keloid cytosol steroid binding assay, androgen (DHT)
# T1 construct: Surgical excision of keloids was performed from clinic and private patient populations; from tissue; host or cells: cytosol of surgically excised keloids
# T1 sequence (P10275 1-920): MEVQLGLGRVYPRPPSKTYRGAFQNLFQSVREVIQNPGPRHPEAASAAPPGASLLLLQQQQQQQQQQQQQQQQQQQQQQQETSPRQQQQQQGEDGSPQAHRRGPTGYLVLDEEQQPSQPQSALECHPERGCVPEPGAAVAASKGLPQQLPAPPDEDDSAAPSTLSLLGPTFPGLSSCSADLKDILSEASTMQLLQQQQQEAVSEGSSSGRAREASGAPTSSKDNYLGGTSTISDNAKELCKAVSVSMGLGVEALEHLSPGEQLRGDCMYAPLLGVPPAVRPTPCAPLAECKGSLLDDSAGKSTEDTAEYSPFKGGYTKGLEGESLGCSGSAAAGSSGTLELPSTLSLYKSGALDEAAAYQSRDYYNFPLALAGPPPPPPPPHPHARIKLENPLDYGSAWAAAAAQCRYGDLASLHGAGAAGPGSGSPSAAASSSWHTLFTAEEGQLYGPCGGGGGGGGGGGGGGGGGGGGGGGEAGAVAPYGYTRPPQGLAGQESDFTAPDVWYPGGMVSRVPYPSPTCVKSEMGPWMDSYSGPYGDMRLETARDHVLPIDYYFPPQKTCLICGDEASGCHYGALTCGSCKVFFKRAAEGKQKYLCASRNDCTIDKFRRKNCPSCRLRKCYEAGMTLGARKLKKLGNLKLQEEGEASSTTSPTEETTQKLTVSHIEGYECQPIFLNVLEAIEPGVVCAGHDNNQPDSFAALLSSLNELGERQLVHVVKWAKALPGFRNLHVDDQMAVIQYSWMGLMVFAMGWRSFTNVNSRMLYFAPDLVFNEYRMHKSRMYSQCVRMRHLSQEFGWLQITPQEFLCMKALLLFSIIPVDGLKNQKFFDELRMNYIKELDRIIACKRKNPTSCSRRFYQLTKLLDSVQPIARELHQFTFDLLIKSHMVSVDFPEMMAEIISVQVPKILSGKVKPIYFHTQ
# hard fibrous band = assay: Hard fibrous band formation around breast implants following augmentation surgery; set-up: species or system human
# From the text: "Hard fibrous band" formation was retarded around breast implants following augmentation surgery.
# androgen receptor [4] = target: T2, androgen receptor (Homo sapiens, UniProt P10275); assay: Androgen receptor inhibition in skin/tissue fibroblast lines; type: cell-based; set-up: The bald skin was used for androgen receptors using the second technique described above; from tissue; host or cells: bald scalp skin of hair transplantation volunteers; settings: DHT:compound 1:1,000
# T2 sequence (P10275 1-920): T1 sequence (P10275 1-920)
# Description: Explants of both normal and keloid skin and tissue fibroblast lines were established.
# Hormonal receptor analyses on these tissues were performed by the method of Griffith et al., Journal of Clinical Investigation, Vol. 57, page 1340 (1978).
# [5] = tested on: fungal androgen receptors; assay: Fungal androgen receptor inhibition, Fusarium; type: binding
# From the text: (§1) In the second series of experiments using the compound of the invention 2-(5-hydroxyhept-1-yl) bicyclo[3.3.0]octan-7-one {hexahydro-4-(5-hydroxyheptyl)-2-(1H)-pentalenone} upon zeralenone and zearalanol production, zearalenone and zearalanol were chemically obtained from Sigma Chemical Co., St. Louis, Mo.
# progesterone receptor [6] = assay: Fungal progesterone receptor inhibition, Fusarium; type: binding
# progesterone receptor [7] = assay: Progesterone receptor inhibition, Fusarium calorum; type: binding
# From the text: as §1
# progesterone receptor [8] = assay: Progesterone receptor inhibition, Fulsarium gravarium; type: binding
# From the text: as §1
# estrogen receptor [9] = assay: Estrogen receptor inhibition, Candida; type: binding
# estrogen receptor [10] = assay: Estrogen receptor inhibition, Torulopsis; type: binding
# androgen receptor [11] = assay: Androgen receptor inhibition, Coccodia; type: binding
# estrogen receptor [12] = assay: Estrogen receptor inhibition, Coccodia; type: binding
# androgen receptor [13] = assay: Androgen receptor inhibition, Trichophyton; type: binding
# estrogen receptor [14] = assay: Estrogen receptor inhibition, Blastomyces; type: binding
# progesterone receptor [15] = assay: Progesterone receptor inhibition, Blastomyces; type: binding
# androgen receptor [16] = assay: Androgen receptor inhibition, Cryptococci; type: binding
# progesterone receptor [17] = assay: Progesterone receptor inhibition, Cryptococci; type: binding
# androgen receptor [18] = assay: Androgen receptor inhibition, Sporotrichum; type: binding
# estrogen receptor [19] = assay: Estrogen receptor inhibition, Sporotrichum; type: binding
# estrogen receptor [20] = assay: Estrogen receptor inhibition, Norcardia; type: binding
# progesterone receptor [21] = assay: Progesterone receptor inhibition, Norcardia; type: binding
# estrogen receptor [22] = type: binding, Histoplasma
# fungal infections = assay: Efficacy studies and toxicity studies
# From the text: At the present time, therapies for fungal infections are not satisfactory and are frequently dangerous.
# androgen receptor [23] = assay: Androgen receptor inhibition, Pseudomonas testosteroni; type: binding; settings: DHT:anti-androgen 1:1,000
structure (smiles),measurement,setting,value
"CCC(CCCCC1CCC2CC(=O)CC12)OC (stereo not drawn) [Compound V, 2-(5-Methoxyhept-1-yl)bicyclo[3.3.0]octan-7-one]",Fold Elastic Increase Compared to Control,[1]; patient 1,1.4 Fold
same,Fold Elastic Increase Compared to Control,[1]; patient 2,4.7 Fold
same,Fold Elastic Increase Compared to Control,[1]; patient 3,2.0 Fold
same,Fold Elastic Increase Compared to Control,[1]; patient 4,4.0 Fold
same,Fold Elastic Increase Compared to Control,[1]; patient 5,6.0 Fold
same,Fold Elastic Increase Compared to Control,[1]; patient 6,2.0 Fold
same,Fold Elastic Increase Compared to Control,[1]; patient 7,3.0 Fold
same,Fold Elastic Increase Compared to Control,[1]; patient 8,3.0 Fold
same,Fold Elastic Increase Compared to Control,[1]; patient 9,4.0 Fold
same,Fold Elastic Increase Compared to Control,[1]; patient 10,6.0 Fold
same,Fold Elastic Increase Compared to Control,[1]; patient 11,3.0 Fold
same,effect on progesterone receptors in melanoma tissue,progesterone receptor [2],no significant effect
same,% Block,"[3]; patient 1, suprapubic",43%
same,% Block,"[3]; patient 2, chest",24%
same,% Block,"[3]; patient 3, neck",57%
same,% Block,"[3]; patient 4, inguinal groin",86%
same,hard fibrous band formation around breast implants,hard fibrous band,retarded
same,% Androgen Receptor Inhibition,androgen receptor [4]; forearm,22%
same,% Androgen Receptor Inhibition,androgen receptor [4]; keloid,72% and 41%
CCC(O)CCCCC1CCC2CC(=O)CC12 (stereo not drawn) [Compound IV],fungal androgen receptors blocked,"[5]; DHT:compound 1:1,000",9-83%
same,% Androgen Receptor Inhibition,[5]; fungal hormone Zeralanol,84%
same,% Androgen Receptor Inhibition,[5]; fungal hormone Zeralenone,79%
same,blocking of interaction of fungal hormone and its hormonal receptors,"[5]; hormone:anti-androgen 1:1 to 1:1,000",26-90%
same,% Progesterone Receptor Inhibition,progesterone receptor [6]; fungal hormone Zeralanol,0%
same,% Progesterone Receptor Inhibition,progesterone receptor [6]; fungal hormone Zeralenone,0%
same,% Progesterone Receptor Inhibition,progesterone receptor [7]; DHT:anti-androgen 1:1,7%
same,% Progesterone Receptor Inhibition,progesterone receptor [7]; DHT:anti-androgen 1:10,9%
same,% Progesterone Receptor Inhibition,progesterone receptor [8]; DHT:anti-androgen 1:1,1%
same,% Progesterone Receptor Inhibition,progesterone receptor [8]; DHT:anti-androgen 1:10,3%
same,% Progesterone Receptor Inhibition,progesterone receptor [8]; DHT:anti-androgen 1:100,6%
same,% Progesterone Receptor Inhibition,"progesterone receptor [8]; DHT:anti-androgen 1:1,000",4%
same,% Estrogen Receptor Inhibition,estrogen receptor [9],0%
same,% Estrogen Receptor Inhibition,estrogen receptor [10],0%
same,% Androgen Receptor Inhibition,androgen receptor [11],67%
same,% Estrogen Receptor Inhibition,estrogen receptor [12],0%
same,% Androgen Receptor Inhibition,androgen receptor [13],81%
same,% Estrogen Receptor Inhibition,estrogen receptor [14],0%
same,% Progesterone Receptor Inhibition,progesterone receptor [15],3%
same,% Androgen Receptor Inhibition,androgen receptor [16],76%
same,% Progesterone Receptor Inhibition,progesterone receptor [17],4%
same,% Androgen Receptor Inhibition,androgen receptor [18],29%
same,% Estrogen Receptor Inhibition,estrogen receptor [19],0%
same,% Estrogen Receptor Inhibition,estrogen receptor [20],0%
same,% Progesterone Receptor Inhibition,progesterone receptor [21],0%
same,% Estrogen Receptor Inhibition,estrogen receptor [22],0%
same,efficacy studies,fungal infections,efficacious
same,toxicity studies,fungal infections,safe
same,% Androgen Receptor Inhibition,androgen receptor [23]; strain 1,90%
same,% Androgen Receptor Inhibition,androgen receptor [23]; strain 2,49%
same,% Androgen Receptor Inhibition,androgen receptor [23]; strain 3,39%
same,% Androgen Receptor Inhibition,androgen receptor [23]; strain 4,63%
